This passage reports IC50 results from patent publication US8962630B2, “Pyrrolopyrimidine compounds and their uses” (Novartis AG, priority 2008, dated 2015).

What all share (format): biochemical
One test addresses CDK4/cyclin D1 (Homo sapiens (Human), UniProt P11802). The experiment in a line: CDK4/Cyclin D1 enzymatic activity assay (Lance TR-FRET). To be noted: Table 2; 3 μM ATP; read-out: CDK4. As for the experimental part:
A 384-well microtiter Lance TR-FRET (time-resolved-fluorescence energy transfer) endpoint assay was used for CDK4/cyclin D1 kinase activity measurements. The same assay was used for IC50 determination of small molecule inhibitors. In general, the kinase reactions were carried out in 30 μL volumes in the reaction solution containing the following: 2 uL compound (in […]), 18 uL CDK4/cyclin D1 in Assay Buffer (50 mM HEPES, pH 7.5, 5 mM MgCl2, 2 mM MnCl2, 1 mM DTT, 0.05% BSA, 0.02% Tween-20), 10 uL of the mixture of pRb152 and ATP. The final reaction mixture contains compound (inhibitor) with the concentration varying from 0.005-10 μM, 2% DMSO, 0.3 nM CDK4/cyclin D1, 175 nM pRb152, and 3 μM ATP (Amersham Pharmacia, Cat. No. 27-2056-01). All reactions were run at room temperature in 384-well white flat-bottom OptiPlates (Perkin Elmer, Cat. No. 6007290) for 60 min then were quenched by the addition of 10 μL of 120 mM EDTA. The signals were captured by the addition of 40 μL of the Detection Solution containing the following: Detection Buffer (50 mM HEPES, pH 7.5, 30 mM EDTA, 0.1% Triton x-100, 0.05% BSA), 70 ng/mL anti-phospho-pRb(S780) (Cell Signaling Technology, Cat. No. 9307S), 1 nM Lance Eu-W1024-Rabbit anti-IgG (Perkin Elmer, Cat. No. AD0082), and 20 nM SureLight™ Allophycocyanin-Streptavidin (Perkin Elmer, Cat. No. CR130-100). The resulted solutions were incubated at room temperature for 2 hours before read on the Evision Multilabel Reader (Perkin Elmer, Envision 2102-0010).
CDk4/cyclin D1 recombinant protein used in the enzymatic activity assay was prepared by coexpressing pDEST10-CDK4 (N-terminal His6) and pFastBacDual-GST-hCyclinDl viruses in Sf21 cells.

In the next test the target is CDK2/cyclin A (Homo sapiens (Human), UniProt P24941). The experiment in a line: CDK2/Cyclin A enzymatic activity assay (IMAP-FP). To be noted: Table 2; read-out: CDK2.
A further test has as its target CDK1/cyclin B (Homo sapiens (Human), UniProt P06493). Put plainly: CDK1/Cyclin B enzymatic activity assay (IMAP-FP). To be noted: Table 2; 20 μM ATP; read-out: CDK1. The source says:
A 384-well microtiter IMAP-FPT™ (Molecular Devices Trade Mark Technology) endpoint assay was used for CDK1/cyclin B kinase activity measurements. The same assay was used for IC50 determination of small molecule inhibitors.

CDK1/cyclin B, sequence (P06493 whole entry, species assumed): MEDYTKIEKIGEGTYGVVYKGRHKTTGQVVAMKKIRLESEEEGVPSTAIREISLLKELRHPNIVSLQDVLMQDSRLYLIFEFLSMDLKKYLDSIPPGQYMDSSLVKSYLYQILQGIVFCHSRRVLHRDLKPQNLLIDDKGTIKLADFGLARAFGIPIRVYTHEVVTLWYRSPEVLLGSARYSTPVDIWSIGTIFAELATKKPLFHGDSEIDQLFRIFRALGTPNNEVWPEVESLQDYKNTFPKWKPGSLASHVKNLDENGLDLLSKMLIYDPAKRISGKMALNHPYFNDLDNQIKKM
CDK1/cyclin B, sequence (P14635 whole entry partner, species assumed): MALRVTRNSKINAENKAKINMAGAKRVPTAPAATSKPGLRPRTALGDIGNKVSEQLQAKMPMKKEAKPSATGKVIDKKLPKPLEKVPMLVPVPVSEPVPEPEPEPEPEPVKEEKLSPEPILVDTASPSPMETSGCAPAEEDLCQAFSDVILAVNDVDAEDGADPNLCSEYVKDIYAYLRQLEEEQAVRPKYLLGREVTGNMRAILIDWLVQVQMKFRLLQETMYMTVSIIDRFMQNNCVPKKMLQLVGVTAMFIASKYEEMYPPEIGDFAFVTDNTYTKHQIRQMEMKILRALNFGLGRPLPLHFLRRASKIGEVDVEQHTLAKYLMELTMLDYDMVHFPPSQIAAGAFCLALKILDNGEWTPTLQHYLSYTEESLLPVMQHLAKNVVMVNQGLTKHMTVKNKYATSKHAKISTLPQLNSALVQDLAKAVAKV
CDK4/cyclin D1, sequence (P11802 whole entry): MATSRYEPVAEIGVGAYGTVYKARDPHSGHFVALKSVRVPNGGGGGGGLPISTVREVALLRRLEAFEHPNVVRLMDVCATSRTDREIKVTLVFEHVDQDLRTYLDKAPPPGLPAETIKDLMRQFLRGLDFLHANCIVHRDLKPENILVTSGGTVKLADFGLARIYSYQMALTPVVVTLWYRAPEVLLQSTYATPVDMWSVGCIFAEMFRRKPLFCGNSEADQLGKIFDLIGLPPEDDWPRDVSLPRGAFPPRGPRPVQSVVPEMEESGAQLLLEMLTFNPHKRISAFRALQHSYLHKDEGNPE
CDK4/cyclin D1, sequence (P24385 whole entry partner): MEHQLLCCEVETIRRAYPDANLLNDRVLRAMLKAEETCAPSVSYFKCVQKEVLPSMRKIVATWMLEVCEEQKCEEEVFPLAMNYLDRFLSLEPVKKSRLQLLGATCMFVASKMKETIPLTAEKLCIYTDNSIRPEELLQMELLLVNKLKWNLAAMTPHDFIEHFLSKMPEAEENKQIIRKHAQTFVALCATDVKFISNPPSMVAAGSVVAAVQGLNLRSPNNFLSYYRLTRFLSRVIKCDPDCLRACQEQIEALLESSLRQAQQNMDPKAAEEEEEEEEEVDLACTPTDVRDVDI

With `CN(C)C(=O)c1cc2cnc(Nc3ccc(N4CCN(C(=O)CCC5CCCC5)CC4)cn3)nc2n1C1CCCC1` [Example 91, 7-Cyclopentyl-2-{5-[4-(3-cyclopentyl-propionyl)-piperazin-1-yl]-pyridin-2-ylamino}-7H-pyrrolo[2,3-d]pyrimidine-6-carboxylic acid dimethylamide], the IC50 at CDK4/cyclin D1 is 0.01 to 0.1 µM; at CDK2/cyclin A, greater than 15 µM; on CDK1/cyclin B it was greater than 15 µM.
Consider `CN(C)C(=O)c1cc2cnc(Nc3ccc(C(=O)NC4CCNCC4)cn3)nc2n1C1CCCC1` [Example 3, 7-Cyclopentyl-2-[5-(piperidin-4-ylcarbamoyl)-pyridin-2-ylamino]-7H-pyrrolo[2,3-d]pyrimidine-6-carboxylic acid dimethylamide], for which the IC50 was 0.01 to 0.1 µM on CDK4/cyclin D1, greater than 15 µM on CDK2/cyclin A and greater than 15 µM on CDK1/cyclin B.
On to `CN(C)C(=O)c1cc2cnc(Nc3ccc(N4CCNC(=O)C4)cn3)nc2n1C1CCCC1` [Example 4, 7-Cyclopentyl-2-[5-(3-oxo-piperazin-1-yl)-pyridin-2-ylamino]-7H-pyrrolo[2,3-d]pyrimidine-6-carboxylic acid dimethylamide], for which the IC50 at CDK4/cyclin D1 is 0.01 to 0.1 µM; at CDK2/cyclin A, greater than 15 µM; on CDK1/cyclin B, greater than 15 µM.
Turning to `CN(C)C(=O)c1cc2cnc(Nc3ccc(N4CCC(N)C4)cn3)nc2n1C1CCCC1` (racemic) [Example 13, Rac-2-[5-(3-Amino-pyrrolidin-1-yl)-pyridin-2-ylamino]-7-cyclopentyl-7H-pyrrolo[2,3-d]pyrimidine-6-carboxylic acid dimethylamide], the IC50 is 0.01 to 0.1 µM at CDK4/cyclin D1, greater than 15 µM at CDK2/cyclin A and greater than 15 µM at CDK1/cyclin B.
Regarding `CN(C)C(=O)c1cc2cnc(Nc3ccc(N4CCN(CCOCCO)CC4)cn3)nc2n1C1CCCC1` [Example 33, 7-Cyclopentyl-2-(5-{4-[2-(2-hydroxy-ethoxy)-ethyl]-piperazin-1-yl}-pyridin-2-ylamino)-7H-pyrrolo[2,3-d]pyrimidine-6-carboxylic acid dimethylamide], the IC50 was 0.01 to 0.1 µM at CDK4/cyclin D1, greater than 15 µM on CDK2/cyclin A and greater than 15 µM at CDK1/cyclin B.
In the case of `CN(C)C(=O)c1cc2cnc(Nc3ccc(N4CCN(CC(F)(F)F)CC4)cn3)nc2n1C1CCCC1` [Example 25, 7-Cyclopentyl-2-{5-[4-(2,2,2-trifluoro-ethyl)-piperazin-1-yl]-pyridin-2-ylamino}-7H-pyrrolo[2,3-d]pyrimidine-6-carboxylic acid dimethylamide], the IC50 at CDK4/cyclin D1 was 0.01 to 0.1 µM; on CDK2/cyclin A, greater than 15 µM; at CDK1/cyclin B, greater than 15 µM.
Consider `CN(C)C(=O)c1cc2cnc(Nc3ccc(N4CCN(C(=O)N5CCCC5)CC4)cn3)nc2n1C1CCCC1` [Example 22, 7-Cyclopentyl-2-{5-[4-(pyrrolidine-1-carbonyl)-piperazin-1-yl]-pyridin-2-ylamino}-7H-pyrrolo[2,3-d]pyrimidine-6-carboxylic acid dimethylamide], for which the IC50 is 0.01 to 0.1 µM at CDK4/cyclin D1, greater than 15 µM at CDK2/cyclin A and greater than 15 µM at CDK1/cyclin B.
As for `CN(C)C(=O)c1cc2cnc(Nc3ccccn3)nc2n1C1CCC(C)(O)CC1` (stereo not drawn) [Example 40, 7-(4-Hydroxy-4-methyl-cyclohexyl)-2-(pyridin-2-ylamino)-7H-pyrrolo[2,3-d]pyrimidine-6-carboxylic acid dimethylamide], the IC50 is 0.1 to 1 µM at CDK4/cyclin D1, greater than 15 µM on CDK2/cyclin A and greater than 15 µM at CDK1/cyclin B.
Regarding `CN(C)C(=O)c1cc2cnc(Nc3ccc(N4CCN(CC5CCCCC5)CC4)cn3)nc2n1C1CCCC1` [Example 69, 2-[5-(4-Cyclohexylmethyl-piperazin-1-yl)-pyridin-2-ylamino]-7-cyclopentyl-7H-pyrrolo[2,3-d]pyrimidine-6-carboxylic acid dimethylamide], the results for the IC50 on CDK4/cyclin D1, on CDK2/cyclin A and on CDK1/cyclin B were 0.01 to 0.1 µM, greater than 15 µM and greater than 15 µM, respectively.
For `CN1CCN(Cc2ccc(Nc3ncc4cc(C(=O)N(C)C)n(C5CCCC5)c4n3)nc2)CC1` [Example 43, 7-Cyclopentyl-2-[5-(4-methyl-piperazin-1-ylmethyl)-pyridin-2-ylamino]-7H-pyrrolo[2,3-d]pyrimidine-6-carboxylic acid dimethylamide], the IC50 was 0.01 to 0.1 µM at CDK4/cyclin D1, greater than 15 µM on CDK2/cyclin A and greater than 15 µM at CDK1/cyclin B.
As for `CC1CN(c2ccc(Nc3ncc4cc(C(=O)N(C)C)n(C5CCCC5)c4n3)nc2)CC(C)N1` (stereo not drawn) [Example 24, 7-Cyclopentyl-2-[5-(3,5-dimethyl-piperazin-1-yl)-pyridin-2-ylamino]-7H-pyrrolo[2,3-d]pyrimidine-6-carboxylic acid dimethylamide], the values for the IC50 at CDK4/cyclin D1, on CDK2/cyclin A and at CDK1/cyclin B were 0.01 to 0.1 µM, greater than 15 µM and greater than 15 µM, respectively.
`C[C@@H]1CN(c2ccc(Nc3ncc4cc(C(=O)N(C)C)n(C5CCCC5)c4n3)nc2)CCN1CCO` [Example 81, 7-Cyclopentyl-2-{5-[(R)-4-(2-hydroxy-ethyl)-3-methyl-piperazin-1-yl]-pyridin-2-ylamino}-7H-pyrrolo[2,3-d]pyrimidine-6-carboxylic acid dimethylamide]: the values for the IC50 at CDK4/cyclin D1, at CDK2/cyclin A and on CDK1/cyclin B were 0.01 to 0.1 µM, greater than 15 µM and greater than 15 µM, respectively.
As to `CCN1CCN(c2ccc(Nc3ncc4cc(C(=O)N(C)C)n(C5CCCC5)c4n3)nc2)CC1` [Example 78, 7-Cyclopentyl-2-[5-(4-ethyl-piperazin-1-yl)-pyridin-2-ylamino]-7H-pyrrolo[2,3d]pyrimidine-6-carboxylic acid dimethylamide], the figures for the IC50 at CDK4/cyclin D1, on CDK2/cyclin A and on CDK1/cyclin B were 0.001 to 0.01 µM, greater than 15 µM and greater than 15 µM, respectively.
In the case of `CN(C)C(=O)c1cc2cnc(Nc3ccc(N4CCN(CC(C)(C)O)CC4)cn3)nc2n1C1CCCC1` [Example 71, 7-Cyclopentyl-2-{5-[4-(2-hydroxy-2-methyl-propyl)-piperazin-1-yl]-pyridin-2-ylamino}-7H-pyrrolo[2,3-d]pyrimidine-6-carboxylic acid dimethylamide], the figures for the IC50 on CDK4/cyclin D1, on CDK2/cyclin A and on CDK1/cyclin B were 0.01 to 0.1 µM, greater than 15 µM and greater than 15 µM, respectively.
Take `COCCN1CCN(Cc2ccc(Nc3ncc4cc(C(=O)N(C)C)n(C5CCCC5)c4n3)nc2)CC1` [Example 77, 7-Cyclopentyl-2-{5-[4-(2-methoxy-ethyl)-piperazin-1-ylmethyl]-pyridin-2-ylamino}-7H-pyrrolo[2,3-d]pyrimidine-6-carboxylic acid dimethylamide]: the IC50 is 0.01 to 0.1 µM on CDK4/cyclin D1, greater than 15 µM on CDK2/cyclin A and greater than 15 µM on CDK1/cyclin B.
For `CN(C)C(=O)c1cc2cnc(Nc3cnc(N4CCNCC4)cn3)nc2n1C1CCCC1` [Example 48, 7-Cyclopentyl-2-(3,4,5,6-tetrahydro-2-[1,2′]bipyrazinyl-5′-ylamino)-7H-pyrrolo[2,3-d]pyrimidine-6-carboxylic acid dimethylamide], the IC50 at CDK4/cyclin D1 is 0.1 to 1 µM; at CDK2/cyclin A, greater than 15 µM; at CDK1/cyclin B it was greater than 15 µM.
In the case of `CN(C)C(=O)c1cc2cnc(Nc3ccc(N4CCN(CCO)CC4)nn3)nc2n1C1CCCC1` [Example 37, 7-Cyclopentyl-2-{6-[4-(2-hydroxy-ethyl)-piperazin-1-yl]-pyridazin-3-ylamino}-7H-pyrrolo[2,3-d]pyrimidine-6-carboxylic acid dimethylamide], the IC50 was 0.01 to 0.1 µM on CDK4/cyclin D1, greater than 15 µM on CDK2/cyclin A and greater than 15 µM at CDK1/cyclin B.
For `CCC(C)CN1CCN(c2ccc(Nc3ncc4cc(C(=O)N(C)C)n(C5CCCC5)c4n3)nc2)CC1` (stereo not drawn) [Example 99, 7-Cyclopentyl-2-{5-[4-(2-methyl-butyl)-piperazin-1-yl]-pyridin-2-ylamino}-7H-pyrrolo[2,3-d]pyrimidine-6-carboxylic acid dimethylamide], the IC50 is 0.01 to 0.1 µM on CDK4/cyclin D1, greater than 15 µM at CDK2/cyclin A and greater than 15 µM on CDK1/cyclin B.
With `CC(C)N1CCC(c2ccc(Nc3ncc4cc(C(=O)N(C)C)n(C5CCCC5)c4n3)nc2)CC1` [Example 80, 7-Cyclopentyl-2-(1′-isopropyl-1′,2′,3′,4′,5′,6′-hexahydro-[3,4′]bipyridinyl-6-ylamino)-7H-pyrrolo[2,3-d]pyrimidine-6-carboxylic acid dimethylamide], the IC50 is 0.01 to 0.1 µM at CDK4/cyclin D1, greater than 15 µM at CDK2/cyclin A and greater than 15 µM on CDK1/cyclin B.
Consider `CN(C)C(=O)c1cc2cnc(Nc3ccc(CN4CC(O)C4)cn3)nc2n1C1CCCC1` [Example 10A, 7-Cyclopentyl-2-[5-(3-hydroxy-azetidin-1-ylmethyl)-pyridin-2-ylamino]-7H-pyrrolo[2,3-d]pyrimidine-6-carboxylic acid dimethylamide], for which the figures for the IC50 at CDK4/cyclin D1, on CDK2/cyclin A and on CDK1/cyclin B were 0.01 to 0.1 µM, 14 µM and 12 µM, respectively.
